Two compounds from patent publication US20200278355A1, “CONJUGATED PROTEINS AND USES THEREOF” (THE SCRIPPS RESEARCH INSTITUTE, priority 2017, published 2020) can be followed below.

Molecules are shown by their SMILES.

The target of the assay is T1, RBM45-NR0B1 interaction (Homo sapiens, UniProt P51843).
T1 construct: endogenous in cells; host or cells: H460 cells (also H2122 and A549) stably expressing FLAG-RBM45 by lentiviral transduction (FLAG-pLJM1)
T1 sequence (P51843 1-470): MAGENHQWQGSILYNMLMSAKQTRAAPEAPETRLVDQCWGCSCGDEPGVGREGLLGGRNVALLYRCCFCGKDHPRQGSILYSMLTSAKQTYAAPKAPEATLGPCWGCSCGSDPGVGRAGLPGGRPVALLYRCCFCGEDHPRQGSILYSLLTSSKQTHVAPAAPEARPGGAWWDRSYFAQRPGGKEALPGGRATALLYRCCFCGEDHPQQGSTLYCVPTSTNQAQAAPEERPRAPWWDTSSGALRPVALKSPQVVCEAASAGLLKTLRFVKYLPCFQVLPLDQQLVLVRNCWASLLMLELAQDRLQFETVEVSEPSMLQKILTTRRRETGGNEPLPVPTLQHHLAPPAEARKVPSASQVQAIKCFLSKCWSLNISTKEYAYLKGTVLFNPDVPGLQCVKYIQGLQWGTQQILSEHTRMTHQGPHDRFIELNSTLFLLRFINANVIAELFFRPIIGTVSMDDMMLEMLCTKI
Put plainly: RBM45-NR0B1 interaction in NSCLC cells stably expressing FLAG-RBM45 (FLAG immunoprecipitation). Format: cell-based. Particulars: 3 h; for blockade of the RBM45-NR0B1 interaction: H460 cells; for blockade of NR0B1 binding to FLAG-RBM45: H2122 and A549 cells. The method, then:
FIG. 6A-FIG. 6F show characterization of NR0B1 ligands in KEAP1-mutant NSCLC cells. […] Dashed lines designate R values≥3 (DMSO/compound), which was used as a cutoff to define cysteines liganded by the indicated compounds. Insets show MS1 profiles for C274 in NR0B1 for DMSO (blue) versus compound (red) treatment. Data are from individual experiments representative of at least three biological replicates. […] (See also Table 5). […] H460 cells stably expressing FLAG-RBM45 were incubated with indicated compounds for 3 h, whereupon FLAG immunoprecipitates were performed and analyzed by immunoblotting. […] Experiments performed as described in (C). […] Dashed line designates R values (light/heavy) of <8, which was used as a cutoff for fast-turnover proteins. […] Charts comparing fraction of NRF2-regulated genes (as determined by RNAseq) for which the corresponding proteins are designated as fast or slow turnover (as determined in G) further divided into groups showing reduced expression (left) or not (right) on day 1 following NRF2 knockdown (as determined by isoTOP-ABPP).
FIG. 12A-FIG. 12G show characterization of NR0B1 ligands in Keap1-mutant NSCLC cells. […] Data obtained from isoTOP-ABPP experiments of H460 cells treated with compound (red traces) or DMSO (blue traces) for 3 h. […] Shown are MS1 profiles for quantified cysteines in NR0B1 following treatment with BPK-29 (40 μM, red; top) BPK-26 (40 μM, red; bottom) or DMSO (blue) for 3 h. […] KEAP1-null HEK293T cells stably expressing FLAG-RBM45 or FLAG-SNW1 were incubated with the indicated compounds for 3 h, after which FLAG immunoprecipitates were prepared from cell lysates. Immunoprecipitates and lysates were analyzed by immunoblotting for the indicated proteins. Dashed lines represent a lane that was cropped from this immunoblot. […] H2122 or A549 cells stably expressing FLAG-RBM45 were incubated with the indicated compounds for 3 h, after which FLAG immunoprecipitates were prepared. Immunoprecipitates and lysates were analyzed as described in (E). […] H2122 cells stably expressing FLAG-RBM45 or A549 cells stably expressing FLAG-SNW1 were incubated with indicated compounds for 3 h and FLAG immunoprecipitates were prepared and analyzed as described in (E).
Confluent 10 cm plates of indicated cell lines were rinsed once with warm PBS and incubated in serum/dye-free RPMI with indicated compounds or vehicle for 3 h at 37° C. Cells were washed once ice-cold PBS and snap frozen.
Cells were rinsed once with ice-cold PBS, and lysed by sonication in Triton IP buffer. Lysates were clarified by centrifugation at 16,000×g for 10 min. […] Proteins were resolved by SDS-PAGE, analyzed by immunoblotting and relative band intensities were quantified using ImageJ software.

Consider `O=C(c1ccc(N2CCOCC2)cc1)N1CCCC(N(Cc2ccccc2)C(=O)CCl)CC1` (stereo not shown) [BPK-29, N-benzyl-2-chloro-N-(1-(4-morpholinobenzoyl)azepan-4-yl)acetamide], for which the “blockade of the RBM45-NR0B1 interaction” value was “block” and the “blockade of NR0B1 binding to FLAG-RBM45” value was “block”.
Consider `O=C(CCl)N(Cc1cccc(Cl)c1F)c1ccc(Cl)nc1` [BPK-26, 2-chloro-N-(3-chloro-2-fluorobenzyl)-N-(6-chloropyridin-3-yl)acetamide], for which the “blockade of the RBM45-NR0B1 interaction” value is “block” and the “blockade of NR0B1 binding to FLAG-RBM45” value is “block”.
